In one assay the target is T1, Rat FAAH (Rattus norvegicus, UniProt P97612).
T1 construct: expressed in transfected cells
T1 sequence (P97612 1-579): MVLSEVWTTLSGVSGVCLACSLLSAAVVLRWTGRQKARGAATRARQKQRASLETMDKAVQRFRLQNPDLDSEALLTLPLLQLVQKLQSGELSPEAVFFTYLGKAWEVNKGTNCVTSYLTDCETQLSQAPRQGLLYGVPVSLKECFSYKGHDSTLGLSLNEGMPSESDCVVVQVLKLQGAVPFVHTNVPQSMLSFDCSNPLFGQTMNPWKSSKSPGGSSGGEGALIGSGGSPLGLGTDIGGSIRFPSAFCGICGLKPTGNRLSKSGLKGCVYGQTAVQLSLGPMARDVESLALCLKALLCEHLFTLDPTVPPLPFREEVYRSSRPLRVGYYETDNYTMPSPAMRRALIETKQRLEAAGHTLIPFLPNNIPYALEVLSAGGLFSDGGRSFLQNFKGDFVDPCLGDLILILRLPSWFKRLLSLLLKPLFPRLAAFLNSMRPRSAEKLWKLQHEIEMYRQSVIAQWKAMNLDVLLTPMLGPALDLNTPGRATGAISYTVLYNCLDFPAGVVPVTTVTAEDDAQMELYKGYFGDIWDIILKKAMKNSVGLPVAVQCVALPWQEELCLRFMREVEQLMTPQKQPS
Kind of assay: Assay Method 2: FAAH assay, 3H-anandamide hydrolysis in cell homogenate. The format is biochemical. To be noted: transfected SK-N-MC cell homogenate, 80 nM 3H-AEA, 1 h rt, > = solubility limit or highest concentration tested. In a few lines:
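Homogenate of SK-N-MC cells stably transfected with rat FAAH cDNA (G418-selected clones) incubated with compound and 80 nM final [3H]-anandamide for 1 h. Released [3H]-ethanolamine separated on activated charcoal filters by centrifugation and counted by scintillation. ">" values mark solubility limit or top concentration tested.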

The next assay has as its target T2, FAAH (Homo sapiens, UniProt O00519).
T2 sequence (O00519 1-579): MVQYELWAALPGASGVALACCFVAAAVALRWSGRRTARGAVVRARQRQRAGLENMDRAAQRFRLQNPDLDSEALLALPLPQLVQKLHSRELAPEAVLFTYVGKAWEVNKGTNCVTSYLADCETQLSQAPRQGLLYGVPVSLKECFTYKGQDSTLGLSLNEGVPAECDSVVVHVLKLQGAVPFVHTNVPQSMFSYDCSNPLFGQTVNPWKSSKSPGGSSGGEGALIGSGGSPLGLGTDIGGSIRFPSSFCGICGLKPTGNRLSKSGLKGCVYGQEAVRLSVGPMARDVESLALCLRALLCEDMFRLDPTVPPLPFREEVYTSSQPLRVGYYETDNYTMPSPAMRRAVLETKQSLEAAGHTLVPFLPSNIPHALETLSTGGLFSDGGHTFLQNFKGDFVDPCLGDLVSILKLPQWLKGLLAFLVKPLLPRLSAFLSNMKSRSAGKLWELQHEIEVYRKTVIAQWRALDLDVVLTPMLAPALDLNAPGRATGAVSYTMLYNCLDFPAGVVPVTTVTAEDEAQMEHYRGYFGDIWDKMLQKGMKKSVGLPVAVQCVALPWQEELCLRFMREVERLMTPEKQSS
Kind of assay: Assay Method 1: FAAH assay, 3H-anandamide hydrolysis in cell homogenate. The format is biochemical. Set-up: expressed in transfected cells. To be noted: T84 or transfected SK-N-MC cell homogenate, 80 nM 3H-AEA, 1 h rt, > = solubility limit or highest concentration tested. In a few lines:
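Homogenate of SK-N-MC cells stably transfected with human FAAH, incubated with compound and 80 nM final ³H-anandamide for 1 h at rt. Released ³H-ethanolamine separated from substrate on activated charcoal and counted by scintillation. ">" values reflect solubility limit or top concentration tested.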

SMILES strings stand for the structures.

Regarding `O=C(c1ncco1)C1CCN(Cc2cccc(Br)c2)CC1` [Example 52, [1-(3-Bromo-benzyl)-piperidin-4-yl]-oxazol-2-yl-methanone], the values for the IC50 against Rat FAAH and on FAAH were 200 nM and 35 nM, respectively.

On to `O=C(c1ncco1)C1CCN(Cc2ccccc2Br)CC1` [Example 53, [1-(2-Bromo-benzyl)-piperidin-4-yl]-oxazol-2-yl-methanone], for which the IC50 (in general, the point on the concentration scale where inhibition reaches its midpoint) amounted to 320 nM at Rat FAAH and 85 nM on FAAH.

For the compound `O=C(c1ncco1)C1CCN(Cc2cc3ccccc3s2)CC1` [Example 54, (1-Benzo[b]thoiphen-2-ylmethyl-piperidin-4-yl)-oxazol-2-yl-methanone], the values for the IC50 against Rat FAAH and on FAAH were 9 nM and 2 nM, respectively.

For the compound `O=C(c1ncco1)C1CCN(Cc2cc3ccccc3o2)CC1` [Example 55, (1-Benzofuran-2-ylmethyl-piperidin-4-yl)-oxazol-2-yl-methanone], the IC50 at Rat FAAH came to 105 nM; at FAAH it was 12 nM.

With `O=C(c1ncco1)C1CCN(Cc2cccc(Oc3ccccc3)c2)CC1` [Example 56, Oxazol-2-yl-[1-(3-phenoxy-benzyl)-piperidin-4-yl]-methanone], the IC50 was found to be 132 nM at Rat FAAH and 28 nM at FAAH.

Consider `O=C(c1ncco1)C1CCN(Cc2ccc(Oc3ccccc3)cc2)CC1` [Example 57, Oxazol-2-yl-[1-(4-phenoxy-benzyl)-piperidin-4-yl]-methanone], for which the figures for the IC50 at Rat FAAH and against FAAH were 532 nM and 210 nM, respectively.

For the compound `O=C(c1ncco1)C1CCN(Cc2ccccn2)CC1` [Example 60, Oxazol-2-yl-(1-pyridin-2-ylmethyl-piperidin-4-yl)-methanone], the IC50 against Rat FAAH was over 10000 nM; against FAAH, 1300 nM.

Turning to `COc1ccc(CN2CCC(C(=O)c3ncco3)CC2)cc1` [Example 61, [1-(4-Methoxy-benzyl)-piperidin-4-yl]-oxazol-2-yl-methanone], the IC50 against Rat FAAH worked out at 1200 nM; against FAAH it was 208 nM.

On to `COc1cccc(CN2CCC(C(=O)c3ncco3)CC2)c1` [Example 62, [1-(3-Methoxy-benzyl)-piperidin-4-yl]-oxazol-2-yl-methanone], for which the results for the IC50 against Rat FAAH and against FAAH were 1300 nM and 244 nM, respectively.

Regarding `Cc1ccc(CN2CCC(C(=O)c3ncco3)CC2)cc1` [Example 64, [1-(4-Methyl-benzyl)-piperidin-4-yl]-oxazol-2-yl-methanone], the figures for the IC50 against Rat FAAH and against FAAH were 484 nM and 112 nM, respectively.

For `Cc1cccc(CN2CCC(C(=O)c3ncco3)CC2)c1` [Example 65, [1-(3-Methyl-benzyl)-piperidin-4-yl]-oxazol-2-yl-methanone], the IC50 worked out at 970 nM at Rat FAAH and 250 nM on FAAH.

For `Cc1ccccc1CN1CCC(C(=O)c2ncco2)CC1` [Example 66, [1-(2-Methyl-benzyl)-piperidin-4-yl]-oxazol-2-yl-methanone], the figures for the IC50 against Rat FAAH and at FAAH were 600 nM and 175 nM, respectively.

For `O=C(c1ncco1)C1CCN(Cc2cc3cc4c(cc3nc2Cl)OCO4)CC1` [Example 67, [1-(6-Chloro-[1,3]dioxolo[4,5-g]quinolin-7-ylmethyl)-piperidin-4-yl]-oxazol-2-yl-methanone], the IC50 against Rat FAAH was over 10000 nM; against FAAH, 745 nM.

`COc1ccc2cc(CN3CCC(C(=O)c4ncco4)CC3)c(Cl)nc2c1` [Example 68, [1-(2-Chloro-7-methoxy-quinolin-3-ylmethyl)-piperidin-4-yl]-oxazol-2-yl-methanone]: the IC50 against Rat FAAH came to 511 nM; on FAAH, 294 nM.

With `Cc1ccc2cc(CN3CCC(C(=O)c4ncco4)CC3)c(Cl)nc2c1` [Example 69, [1-(2-Chloro-7-methyl-quinolin-3-ylmethyl)-piperidin-4-yl]-oxazol-2-yl-methanone], the IC50 at Rat FAAH came out at 470 nM; against FAAH, 585 nM.

As to `O=C(c1ncco1)C1CCN(Cc2cc3ccc(Cl)cc3nc2Cl)CC1` [Example 70, [1-(2,7-Dichloro-quinolin-3-ylmethyl)-piperidin-4-yl]-oxazol-2-yl-methanone], the figures for the IC50 against Rat FAAH and against FAAH were 290 nM and 500 nM, respectively.

With `O=C(c1ncco1)C1CCN(Cc2ccc3c(c2)OC(F)(F)O3)CC1` [Example 71, [1-(2,2-Difluoro-benzo[1,3]dioxol-5-ylmethyl)-piperidin-4-yl]-oxazol-2-yl-methanone], the IC50 against Rat FAAH stood at 24 nM; against FAAH it was 27 nM.

On to `CN(C)c1nc2ccccc2cc1CN1CCC(C(=O)c2ncco2)CC1` [Example 72, [1-(2-Dimethylamino-quinolin-3-ylmethyl)-piperidin-4-yl]-oxazol-2-yl-methanone], for which the IC50 is 38 nM on Rat FAAH and 46 nM against FAAH.

As to `Cc1cccc2cc(CN3CCC(C(=O)c4ncco4)CC3)c(Cl)nc12` [Example 73, [1-(2-Chloro-8-methyl-quinolin-3-ylmethyl)-piperidin-4-yl]-oxazol-2-yl-methanone], the IC50 against Rat FAAH amounted to 4 nM; at FAAH, 2 nM.

For the compound `Cc1ccc2nc(Cl)c(CN3CCC(C(=O)c4ncco4)CC3)cc2c1` [Example 74, [1-(2-Chloro-6-methyl-quinolin-3-ylmethyl)-piperidin-4-yl]-oxazol-2-yl-methanone], the IC50 on Rat FAAH turned out to be 87 nM; against FAAH, 17 nM.

Take `O=C(c1ncco1)C1CCN(Cc2ccc3cccc(Cl)c3n2)CC1` [Example 75, [1-(8-Chloro-quinolin-2-ylmethyl)-piperidin-4-yl]-oxazol-2-yl-methanone]: the IC50 against Rat FAAH and against FAAH was 4 nM throughout.

Take `O=C(c1ncco1)C1CCN(Cc2ccc3ccc(Cl)cc3n2)CC1` [Example 76, [1-(7-Chloro-quinolin-2-ylmethyl)-piperidin-4-yl]-oxazol-2-yl-methanone]: the IC50 was 8 nM on Rat FAAH and 3 nM on FAAH.

On to `O=C(c1ncco1)C1CCN(Cc2ccc3cc(Cl)ccc3n2)CC1` [Example 77, [1-(6-Chloro-quinolin-2-ylmethyl)-piperidin-4-yl]-oxazol-2-yl-methanone], for which the IC50 against Rat FAAH amounted to 22 nM; on FAAH, 7 nM.

As for `O=C(c1ncco1)C1CCN(Cc2cnc3ccccc3n2)CC1` [Example 78, Oxazol-2-yl-(1-quinoxalin-2-ylmethyl-piperidin-4-yl)-methanone], the figures for the IC50 against Rat FAAH and on FAAH were 90 nM and 30 nM, respectively.

`O=C(c1ncco1)C1CCN(Cc2ccc3cccc(O)c3n2)CC1` [Example 79, [1-(8-Hydroxy-quinolin-2-ylmethyl)-piperidin-4-yl]-oxazol-2-yl-methanone]: the IC50 on Rat FAAH was found to be 40 nM; on FAAH, 12 nM.

Turning to `O=C(c1ncco1)C1CCN(Cc2nc3ccccc3cc2Cl)CC1` [Example 80, [1-(3-Chloro-quinolin-2-ylmethyl)-piperidin-4-yl]-oxazol-2-yl-methanone], the IC50 worked out at 70 nM on Rat FAAH and 16 nM on FAAH.

Consider `COc1ccc(CN2CCC(C(=O)c3ncco3)CC2)cn1` [Example 81, [1-(6-Methoxy-pyridin-3-ylmethyl)-piperidin-4-yl]-oxazol-2-yl-methanone], for which the figures for the IC50 at Rat FAAH and against FAAH were 1700 nM and 315 nM, respectively.

`O=C(c1ncco1)C1CCN(Cc2ccc(Cl)nc2)CC1` [Example 82, [1-(6-Chloro-pyridin-3-ylmethyl)-piperidin-4-yl]-oxazol-2-yl-methanone]: the IC50 against Rat FAAH amounted to 650 nM; on FAAH it was 125 nM.

For `Cc1cccc(CN2CCC(C(=O)c3ncco3)CC2)n1` [Example 83, [1-(6-Methyl-pyridin-2-ylmethyl)-piperidin-4-yl]-oxazol-2-yl-methanone], the figures for the IC50 against Rat FAAH and on FAAH were 3000 nM and 640 nM, respectively.

As to `O=C(c1ncco1)C1CCN(Cc2ccc3ccccc3n2)CC1` [Example 84, Oxazol-2-yl-(1-quinolin-2-ylmethyl-piperidin-4-yl)-methanone], the IC50 at Rat FAAH is 23 nM; against FAAH it was 13 nM.

The record behind these values is patent US20100292266A1, “Oxazolyl Piperidine Modulators of Fatty Acid Amide Hydrolase” (priority 2006, published 2010).
